Target: T1, human H3 receptor (Homo sapiens, UniProt Q9Y5N1)
T1 construct: expressed in transfected cells
Assay: In vitro H3 binding assay (3H-N-α-methyl-histamine competition binding)
Conditions: membranes of CHO-K1 cells expressing human H3 receptor; 2 nM 3H-NαMH; read-out: hH3 binding IC50
Description: The ability of compounds to bind to the H3 receptor was determined by measuring the reduction in tritiated N-α-methyl-histamine (^3H—NαMH) binding in a competition binding assay. Changes in the levels of bound radio-label were monitored by scintillation counting with a Trilux Microbeta (Perkin Elmer).
Membranes were prepared from CHO-K1 cells stably expressing human H3 receptor; routinely grown as monolayers in Ham's F12 medium (Invitrogen) supplemented with 10% Foetal Clone 111 (Hyclone), 500 μg/ml G418 (Invitrogen), 5 μg/ml blasticidine S (Invivogen) and […] Gentamicin (Sigma) in 5% CO2 at 37° C. Cells were grown to 80-95% confluency, rinsed once with 1×PBS (Invitrogen) and detached by incubating with 1×PBS containing 0.02% EDTA (Sigma) for 10 minutes at room temperature. Cells were collected by centrifugation at 900×g, 4° C. for 10 minutes. Cells were rinsed once with 1×PBS and re-suspended in ice cold homogenisation buffer (50 mM Tris-HCl (pH 7.4), 2.5 mM EDTA, 5 mM MgCl2, 200 mM Sucrose) at 1×10^7 cells/ml and kept on ice. Cells were homogenised on ice and debris removed by centrifugation at 500×g, 4° C. for 5 minutes. The resulting supernatant was centrifuged at 75,600×g, 4° C. for 60 minutes. Membranes were suspended in homogenisation buffer, protein concentration was determined (BCA Protein Assay kit (Pierce)), diluted to 2.2 mg/ml, dispensed into 1 ml aliquots and stored at −80° C.
Membranes were thawed on ice, sonicated with 4 cycles of 20 pulses (50% amplitude, 0.5 pulse) (UP200S Hielscher) on ice, diluted in assay buffer (50 mM Tris-HCl (pH7.4), 5 mM MgCl2) to 62.5 μg/ml. Compound was serially diluted in DMSO before being diluted 1:10 with assay buffer. 5 μg of membrane in 80 μl of assay buffer was added per well of a 96 well polystyrene plate (Corning). […] of compound was added per well. The assay was initiated by the addition of 10 μl of 20 nM ^3H—NαMH per well and incubated for one hour at room temperature with shaking. Total binding was determined in the presence of 1% DMSO and non-specific binding was determined by the inclusion of 1 μM R-α-methyl-histamine (RαMH). Incubations were then filtered through filtermat A (Perkin Elmer) and washed three times with assay buffer. Filtermats were dried at 42° C. for two hours, scintillant added and the level of bound radioactivity determined.
IC50 values for compounds were determined from seven point log scale dose-response studies and represent the concentration of compound required to inhibit 50% of the specific binding of 2 nM ^3H—NαMH (difference between total and non-specific binding). Curves were generated using the average of duplicate wells for each data point and analyzed using nonlinear regression of sigmoidal dose response (variable slope).

T1 sequence (Q9Y5N1 whole entry): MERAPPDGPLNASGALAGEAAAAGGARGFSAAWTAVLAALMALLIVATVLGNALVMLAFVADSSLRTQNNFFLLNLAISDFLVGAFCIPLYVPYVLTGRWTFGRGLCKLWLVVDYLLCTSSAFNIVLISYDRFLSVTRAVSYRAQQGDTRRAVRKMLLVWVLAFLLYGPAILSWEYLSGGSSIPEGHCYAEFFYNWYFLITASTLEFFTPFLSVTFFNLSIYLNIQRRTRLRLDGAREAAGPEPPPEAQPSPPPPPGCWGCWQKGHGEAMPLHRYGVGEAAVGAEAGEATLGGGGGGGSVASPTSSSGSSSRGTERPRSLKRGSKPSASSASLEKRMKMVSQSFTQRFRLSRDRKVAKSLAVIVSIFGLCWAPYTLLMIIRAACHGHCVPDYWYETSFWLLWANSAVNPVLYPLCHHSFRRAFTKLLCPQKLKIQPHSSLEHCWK

Point of comparison: `CC(C)NC(=O)c1ccc2c(c1)CCN(C1CCC1)CC2` [Example 26, 3-Cyclobutyl-N-isopropyl-2,3,4,5-tetrahydro-1H-benzo[d]azepine-7-carboxamide], IC50 36 nM. Against it:
- O=C(NCC1CCN(C2CCC2)CC1)c1ccc2c(c1)CCN(C1CCC1)CC2 [Example 11, 3-Cyclobutyl-N-((1-cyclobutylpiperidin-4-yl)methyl)-2,3,4,5-tetrahydro-1H-benzo[d]azepine-7-carboxamide] — within 1.5-fold, 30 nM
- O=C(NCc1ccccc1)c1ccc2c(c1)CCN(C1CCCC1)CC2 [Example 19, N-Benzyl-3-cyclopentyl-2,3,4,5-tetrahydro-1H-benzo[d]azepine-7-carboxamide] — 1.8-fold lower, 20 nM
- O=C(NCc1ccncc1)c1ccc2c(c1)CCN(C1CCCC1)CC2 [Example 21, 3-Cyclopentyl-N-(pyridin-4-ylmethyl)-2,3,4,5-tetrahydro-1H-benzo[d]azepine-7-carboxamide] — 2.8-fold lower, 13 nM
- CCNC(=O)c1ccc2c(c1)CCN(C1CCC1)CC2 [Example 25, 3-Cyclobutyl-N-ethyl-2,3,4,5-tetrahydro-1H-benzo[d]azepine-7-carboxamide] — within 1.5-fold, 37 nM
- O=C(NC1CCC1)c1ccc2c(c1)CCN(C1CCC1)CC2 [Example 27, N,3-Dicyclobutyl-2,3,4,5-tetrahydro-1H-benzo[d]azepine-7-carboxamide] — 1.7-fold lower, 21 nM
- O=C(NCC1CCCC1)c1ccc2c(c1)CCN(C1CCC1)CC2 [Example 30, 3-Cyclobutyl-N-(cyclopentylmethyl)-2,3,4,5-tetrahydro-1H-benzo[d]azepine-7-carboxamide] — 7.2-fold lower, 5 nM
- O=C(NCCc1ccccc1)c1ccc2c(c1)CCN(C1CCC1)CC2 [Example 38, 3-Cyclobutyl-N-phenethyl-2,3,4,5-tetrahydro-1H-benzo[d]azepine-7-carboxamide] — 4-fold lower, 9 nM
- O=C(NCc1ccccn1)c1ccc2c(c1)CCN(C1CCC1)CC2 [Example 45, 3-Cyclobutyl-N-(pyridin-2-ylmethyl)-2,3,4,5-tetrahydro-1H-benzo[d]azepine-7-carboxamide] — 2.8-fold lower, 13 nM
- COc1ccc(CNC(=O)c2ccc3c(c2)CCN(C2CCC2)CC3)cc1 [Example 49, 3-Cyclobutyl-N-(4-methoxybenzyl)-2,3,4,5-tetrahydro-1H-benzo[d]azepine-7-carboxamide] — within 1.5-fold, 34 nM
- COC(=O)c1ccc(CNC(=O)c2ccc3c(c2)CCN(C2CCC2)CC3)cc1 [Example 50, Methyl 4-((3-cyclobutyl-2,3,4,5-tetrahydro-1H-benzo[d]azepine-7-carboxamido)methyl)benzoate] — 1.5-fold lower, 24 nM
- O=C(NCc1ccccc1Br)c1ccc2c(c1)CCN(C1CCC1)CC2 [Example 54, N-(2-Bromobenzyl)-3-cyclobutyl-2,3,4,5-tetrahydro-1H-benzo[d]azepine-7-carboxamide] — 3.6-fold lower, 10 nM
- O=C(NCc1ccccc1C(F)(F)F)c1ccc2c(c1)CCN(C1CCC1)CC2 [Example 57, 3-Cyclobutyl-N-(2-(trifluoromethyl)benzyl)-2,3,4,5-tetrahydro-1H-benzo[d]azepine-7-carboxamide] — 3-fold lower, 12 nM
- O=C(NCc1ccccc1Cl)c1ccc2c(c1)CCN(C1CCC1)CC2 [Example 63, N-(2-Chlorobenzyl)-3-cyclobutyl-2,3,4,5-tetrahydro-1H-benzo[d]azepine-7-carboxamide] — 6-fold lower, 6 nM
- O=C(NCc1cccc(Cl)c1)c1ccc2c(c1)CCN(C1CCC1)CC2 [Example 65, N-(3-Chlorobenzyl)-3-cyclobutyl-2,3,4,5-tetrahydro-1H-benzo[d]azepine-7-carboxamide] — 9-fold lower, 4 nM
- O=C(NCc1ccc(Cl)cc1)c1ccc2c(c1)CCN(C1CCC1)CC2 [Example 67, N-(4-Chlorobenzyl)-3-cyclobutyl-2,3,4,5-tetrahydro-1H-benzo[d]azepine-7-carboxamide] — 3.3-fold lower, 11 nM
- Cn1ccc2cc(CNC(=O)c3ccc4c(c3)CCN(C3CCC3)CC4)ccc21 [Example 75, 3-Cyclobutyl-N-((1-methyl-1H-indol-5-yl)methyl)-2,3,4,5-tetrahydro-1H-benzo[d]azepine-7-carboxamide] — 2.4-fold lower, 15 nM
- O=C(NCc1cc(-c2cccs2)on1)c1ccc2c(c1)CCN(C1CCC1)CC2 [Example 84, 3-Cyclobutyl-N-((5-(thiophen-2-yl)isoxazol-3-yl)methyl)-2,3,4,5-tetrahydro-1H-benzo[d]azepine-7-carboxamide] — 3.6-fold lower, 10 nM
- Cc1oc(-c2ccccc2)nc1CNC(=O)c1ccc2c(c1)CCN(C1CCC1)CC2 [Example 85, 3-Cyclobutyl-N-((5-methyl-2-phenyloxazol-4-yl)methyl)-2,3,4,5-tetrahydro-1H-benzo[d]azepine-7-carboxamide] — 2.6-fold lower, 14 nM
- O=C(NCc1cccs1)c1ccc2c(c1)CCN(C1CCC1)CC2 [Example 87, 3-Cyclobutyl-N-(thiophen-2-ylmethyl)-2,3,4,5-tetrahydro-1H-benzo[d]azepine-7-carboxamide] — 9-fold lower, 4 nM
- O=C(NCc1ccoc1)c1ccc2c(c1)CCN(C1CCC1)CC2 [Example 89, 3-Cyclobutyl-N-(furan-3-ylmethyl)-2,3,4,5-tetrahydro-1H-benzo[d]azepine-7-carboxamide] — 2-fold lower, 18 nM
- Cc1occc1CNC(=O)c1ccc2c(c1)CCN(C1CCC1)CC2 [Example 90, 3-cyclobutyl-N-((2-methylfuran-3-yl)methyl)-2,3,4,5-tetrahydro-1H-benzo[d]azepine-7-carboxamide] — 3.6-fold lower, 10 nM
- Cc1cc(CNC(=O)c2ccc3c(c2)CCN(C2CCC2)CC3)c(C)o1 [Example 91, 3-cyclobutyl-N-((2,5-dimethylfuran-3-yl)methyl)-2,3,4,5-tetrahydro-1H-benzo[d]azepine-7-carboxamide] — 6-fold lower, 6 nM
- Cc1nc(CNC(=O)c2ccc3c(c2)CCN(C2CCC2)CC3)c(C)o1 [Example 93, 3-cyclobutyl-N-((2,5-dimethyloxazol-4-yl)methyl)-2,3,4,5-tetrahydro-1H-benzo[d]azepine-7-carboxamide] — within 1.5-fold, 29 nM
- CCn1cc(CNC(=O)c2ccc3c(c2)CCN(C2CCC2)CC3)cn1 [Example 95, 3-Cyclobutyl-N-((1-ethyl-1H-pyrazol-4-yl)methyl)-2,3,4,5-tetrahydro-1H-benzo[d]azepine-7-carboxamide] — 2-fold lower, 18 nM
- Cc1nn(C)c(C)c1CNC(=O)c1ccc2c(c1)CCN(C1CCC1)CC2 [Example 96, 3-Cyclobutyl-N-((1,3,5-trimethyl-1H-pyrazol-4-yl)methyl)-2,3,4,5-tetrahydro-1H-benzo[d]azepine-7-carboxamide] — 2-fold lower, 18 nM
- Cc1nn(C)cc1CNC(=O)c1ccc2c(c1)CCN(C1CCC1)CC2 [Example 98, 3-Cyclobutyl-N-((1,3-dimethyl-1H-pyrazol-4-yl)methyl)-2,3,4,5-tetrahydro-1H-benzo[d]azepine-7-carboxamide] — 2.4-fold lower, 15 nM
- CCn1cc(CNC(=O)c2ccc3c(c2)CCN(C2CCC2)CC3)c(C)n1 [Example 99, 3-Cyclobutyl-N-((1-ethyl-3-methyl-1H-pyrazol-4-yl)methyl)-2,3,4,5-tetrahydro-1H-benzo[d]azepine-7-carboxamide] — 2-fold lower, 18 nM
- Cn1ncc(Cl)c1CNC(=O)c1ccc2c(c1)CCN(C1CCC1)CC2 [Example 102, N-((4-chloro-1-methyl-1H-pyrazol-5-yl)methyl)-3-cyclobutyl-2,3,4,5-tetrahydro-1H-benzo[d]azepine-7-carboxamide] — 2-fold lower, 18 nM
- CCn1cc(Cl)c(CNC(=O)c2ccc3c(c2)CCN(C2CCC2)CC3)n1 [Example 106, N-((4-chloro-1-ethyl-1H-pyrazol-3-yl)methyl)-3-cyclobutyl-2,3,4,5-tetrahydro-1H-benzo[d]azepine-7-carboxamide] — 2.8-fold lower, 13 nM
- Cn1nc(-c2cccs2)cc1CNC(=O)c1ccc2c(c1)CCN(C1CCC1)CC2 [Example 109, 3-Cyclobutyl-N-((1-methyl-3-(thiophen-2-yl)-1H-pyrazol-5-yl)methyl)-2,3,4,5-tetrahydro-1H-benzo[d]azepine-7-carboxamide] — 18-fold lower, 2 nM
- Cc1nn(-c2ccccc2)c(C)c1CNC(=O)c1ccc2c(c1)CCN(C1CCC1)CC2 [Example 110, 3-Cyclobutyl-N-((3,5-dimethyl-1-phenyl-1H-pyrazol-4-yl)methyl)-2,3,4,5-tetrahydro-1H-benzo[d]azepine-7-carboxamide] — 2.1-fold lower, 17 nM
- O=C(NCc1ncc[nH]1)c1ccc2c(c1)CCN(C1CCC1)CC2 [Example 113, N-((1H-Imidazol-2-yl)methyl)-3-cyclobutyl-2,3,4,5-tetrahydro-1H-benzo[d]azepine-7-carboxamide] — 2.8-fold lower, 13 nM

Reference: patent US20110124626A1, “BENZAZEPINE DERIVATIVES AND THEIR USE AS HISTAMINE H3 ANTAGONISTS” (TAKEDA PHARMACEUTICAL COMPANY LIMITED, priority 2008, published 2011)
